# Results as given in PubChem BioAssay (NCI).
#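 Interpolation was linear, between the two tested concentrations surrounding the appropriate level; five concentrations were tested over 48 hours in 96-well plates. TGI is the concentration that stops growth completely.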
# What was measured:
# Assay in all cases: growth of human tumour cells (NCI), 48 h
# 786-0 renal = test system: 786-0 renal
# RPMI-8226 leukemia = test system: RPMI-8226 leukemia
# SF-268 CNS = test system: SF-268 CNS
# NCI-H226 lung = test system: NCI-H226 lung
# T-47D breast = test system: T-47D breast
# LOX IMVI melanoma = test system: LOX IMVI melanoma
# EKVX NSCLC = test system: EKVX NSCLC
# NCI-H23 lung = test system: NCI-H23 lung
# OVCAR-5 ovarian = test system: OVCAR-5 ovarian
# KM12 colon = test system: KM12 colon
# BT-549 breast = test system: BT-549 breast
# M14 melanoma = test system: M14 melanoma
# COLO 205 colon = test system: COLO 205 colon
# HCT-15 colon = test system: HCT-15 colon
# OVCAR-4 ovarian = test system: OVCAR-4 ovarian
# SN12C renal = test system: SN12C renal
# MDA-MB-231 breast = test system: MDA-MB-231 breast
# HCC-2998 colon = test system: HCC-2998 colon
# SF-539 CNS = test system: SF-539 CNS
SMILES,TGI (786-0 renal) [µM],TGI (RPMI-8226 leukemia) [µM],TGI (SF-268 CNS) [µM],TGI (NCI-H226 lung) [µM],TGI (T-47D breast) [µM],TGI (LOX IMVI melanoma) [µM],TGI (EKVX NSCLC) [µM],TGI (NCI-H23 lung) [µM],TGI (OVCAR-5 ovarian) [µM],TGI (KM12 colon) [µM],TGI (BT-549 breast) [µM],TGI (M14 melanoma) [µM],TGI (COLO 205 colon) [µM],TGI (HCT-15 colon) [µM],TGI (OVCAR-4 ovarian) [µM],TGI (SN12C renal) [µM],TGI (MDA-MB-231 breast) [µM],TGI (HCC-2998 colon) [µM],TGI (SF-539 CNS) [µM]
Cc1ccc(S(=O)(=O)N/N=C2/CCC3(O)CC2(C)CCC2[C@H]3CC2(C)C)cc1 (stereo partly drawn),> 100,> 100,> 100,70.9,> 100,28.6,> 100,83.5,78.1,> 100,86.4,> 100,33.1,> 100,> 100,> 100,,,
O=C1CSC(c2ccccc2O)N1c1ccc(-n2c(-c3ccccc3)nc3ccccc3c2=O)cc1 (stereo not drawn),> 100,> 100,> 100,97.5,65.8,69,,> 100,> 100,97.7,61.5,> 100,> 100,60.1,> 100,> 100,37.5,> 100,58.9
CCCc1nc2c(n1CC)C(=O)c1ccccc1C2=O,> 100,> 100,> 100,> 100,> 100,,,> 100,> 100,> 100,> 100,94,> 100,98,> 100,> 100,> 100,> 100,> 100
CSc1nc(=O)cnn1C,> 100,> 100,> 100,> 100,> 100,,> 100,> 100,> 100,> 100,> 100,> 100,> 100,> 100,> 100,> 100,> 100,> 100,
CC1=CCC(C(C)(C)NC(=O)c2ccccc2)C/C1=N/O (stereo not drawn),> 100,,> 100,,> 100,> 100,> 100,> 100,> 100,> 100,> 100,> 100,> 100,> 100,> 100,> 100,> 100,> 100,> 100
CCc1n[nH]c(=O)n1/N=C(\C)c1ccccc1,> 100,> 100,> 100,> 100,> 100,> 100,> 100,> 100,> 100,> 100,> 100,> 100,> 100,> 100,> 100,> 100,> 100,,> 100
Cn1nnc2c3c(N(CCO)CCO)ccnc3ccc21,> 100,,> 100,,> 100,> 100,> 100,> 100,> 100,> 100,> 100,> 100,> 100,> 100,> 100,> 100,> 100,91.2,> 100
CCCCCCCCCCCCCCCCNC(=O)/C(=C\c1ccc(Cl)c(Cl)c1)NC(=O)c1ccccc1,47.4,58.5,> 100,56.8,> 100,54.2,> 100,52.6,> 100,> 100,> 100,> 100,> 100,> 100,84.4,81.5,40.3,,30.8
O=C1OC([C@H](O)c2cccnc2)c2ccccc21 (stereo partly drawn),> 10,> 10,> 10,> 10,> 10,> 10,> 10,> 10,> 10,> 10,,> 10,> 10,> 10,> 10,> 10,> 10,> 10,> 10
C1CSCC2(COC2)CSCCSCC2(COC2)CS1,> 100,,> 100,,> 100,> 100,> 100,> 100,> 100,> 100,> 100,> 100,> 100,> 100,> 100,> 100,> 100,> 100,> 100
O=C(NCCNCCNC(=O)c1cc(-c2ccccc2)nc2ccccc12)c1cc(-c2ccccc2)nc2ccccc12,3.39,,9.55,9.16,7.62,3.05,11.7,22.3,4.91,4.03,28.6,3.12,3.8,8.19,5.98,7.59,7.32,3.14,3.99
CC(=O)/C(=C\I)c1ccccc1,4.13,5.26,36.5,47.6,3.83,3.59,33.3,4.99,2.99,13.3,3.39,4.4,3.14,3.35,,,3.74,,34.2
Cc1cc(NS(=O)(=O)c2ccc(N=[N+]([O-])c3ccc(S(=O)(=O)Nc4cc(C)on4)cc3)cc2)no1,> 100,> 100,> 100,> 100,> 100,> 100,> 100,> 100,> 100,,> 100,> 100,> 100,> 100,> 100,> 100,> 100,,> 100
Cc1cn(C2CC(N=[N+]=[N-])C(COP(=O)(O)OCC3OC(n4cc(F)c(=O)[nH]c4=O)CC3O)O2)c(=O)[nH]c1=O (stereo not drawn),> 100,,> 100,> 100,> 100,> 100,22.7,> 79.7,> 100,> 45.5,> 100,> 100,> 100,> 100,,> 100,> 100,> 100,> 44
O=[N+]([O-])c1cccc2nccc(NCCN3CCOCC3)c12,> 57.5,> 63.5,> 66.7,17,> 100,46.6,> 53.8,> 65.1,38.4,40,,34,49,> 46.9,25.6,> 48,71.1,26.4,57.2
COc1cc(C2c3cc4c(cc3C(=O)C3CCC(=O)N32)OCO4)cc(OC)c1O (stereo not drawn),> 50,> 50,,> 50,> 50,,> 50,> 50,> 50,> 50,> 50,> 50,> 50,> 50,> 50,> 50,,,> 50
C=C1C(=O)O[C@H]2C1C[C@H](O)[C@@]1(C)OC1CC[C@@]1(C)O[C@H]21 (stereo partly drawn),37.1,30.2,95.7,,36.4,,38.4,39.2,31.5,55.1,26.9,30.6,16.9,40.3,29.6,32.4,,28.5,
COc1cc([C@@H]2c3cc4c(cc3[C@@H](Nc3ccc(Cl)cc3C(=O)c3ccccc3)[C@H]3COC(=O)[C@H]23)OCO4)cc(OC)c1OC,> 100,> 100,> 100,,> 100,> 100,> 100,> 29.6,> 100,,> 100,> 100,,,> 100,> 100,> 100,,0.669
O=c1[nH][nH]c(=O)c2c1ccc1oc3ccccc3c12,> 100,> 100,> 100,> 100,> 100,,> 100,> 100,> 100,> 100,> 100,> 100,> 100,,> 100,> 100,> 100,> 100,> 100
Cc1cc(O)c(/C=N/C(=S)Nc2ccc(S(N)(=O)=O)cc2)c(=O)o1,> 100,,> 100,> 100,> 100,> 100,> 100,> 100,> 100,> 100,> 100,> 100,> 100,> 100,> 100,> 100,> 100,> 100,> 100
CCOC(=O)c1c[nH]c(C(=O)C=[N+]=[N-])c1C1CCN(CC)C1=S (stereo not drawn),> 100,> 100,> 100,,> 100,,> 100,> 100,> 100,> 100,> 100,> 100,> 100,> 100,> 100,,> 100,> 100,
